Measured values: patent US20090036384A1, “INCREASING PREGNANCY RATES” (PARNELL LABORATORIES (AUST) PTY LIMITED, priority 2005, published 2009)
Read-outs that look alike come from different tables or passages of the source.

Experiments:
[1] = test system: LH; conditions: exogenous GnRH; cited from earlier work
[2] = test system: cows; conditions: cited from earlier work
[3] = literature study; cited from earlier work
[4] = test system: LH; conditions: in vivo; cited from earlier work
[5] = Progesterone solubility trials; assay type: physicochemical
Protocol: The purpose of the formulation studies was to establish a product vehicle that was suitable for solubilisation of a relatively high concentration of Progesterone but in which Gonadorelin would be stable. […] Low solubility of Progesterone (even in organic solvents) further limited the choice of injectable organic vehicles.
Further Solubility Trials were conducted as follows: […]

[6] = Progesterone solubility and precipitation at low temperature (2-8° C.); assay type: physicochemical; conditions: solubility study; most appropriate combination
Protocol: Since addition of acids reduced the amount of NMP available for dissolution of Progesterone, samples prepared with different acids were refrigerated at 2-8° C. to investigate progesterone solubility and the occurrence of precipitation at low temperatures. The appearance of crystals in samples prepared with formic and hydrochloric acid was obvious after several hours of refrigeration. Crystals appeared after 1-2 days in samples prepared with phosphoric acid. FTIR testing confirmed that the precipitate was crystalline progesterone, which was difficult to redissolve due to the crystalline form of the precipitate. At this stage a further search for vehicle that would provide sufficient progesterone solubility at low temperatures was conducted. […] A solubility study confirmed that the most appropriate combination was NMP+water+phosphoric acid with progesterone amount not exceeding 8-10% w/v.

[7] = test system: cows; conditions: cited from earlier work; remark: listed apart in the source

Structure (SMILES): CC(C)C[C@H](NC(=O)CNC(=O)[C@H](Cc1ccc(O)cc1)NC(=O)[C@H](CO)NC(=O)[C@H](Cc1c[nH]c2ccccc12)NC(=O)[C@H](Cc1cnc[nH]1)NC(=O)[C@@H]1CCC(=O)N1)C(=O)N[C@@H](CCCNC(=N)N)C(=O)N1CCC[C@H]1C(=O)NCC(N)=O [GnRH]
- duration of GnRH-induced LH surge [1]: 7 to 14 h
- peak serum levels of LH [1]: 9 to 22 ng/mL
- ovulation rate ([2]; 25 μg of GnRH): dramatic reduction in ovulation rates
- ovulation rate ([2]; 50 μg of GnRH): identical ovulation rate to 100 μg

Structure (SMILES): CN1CCCC1=O [NMP, N-methyl-2-pyrrolidone]
- pH of NMP [3]: approximately 11.5

Structure (SMILES): C[C@]12CC[C@@H]3c4ccc(O)cc4CC[C@H]3[C@@H]1CC[C@@H]2OC(=O)CCC1CCCC1 [ECP, Estradiol Cypionate]
- time of LH surge after administration [4]: around 40 hours

Structure (SMILES): CC(=O)[C@H]1CC[C@H]2[C@@H]3CCC4=CC(=O)CC[C@]4(C)[C@H]3CC[C@]12C [Progesterone]
- Solubility of Progesterone ([5]; pure solvent PEG400): marginal
- Solubility of Progesterone ([5]; pure solvent Propylene Glycol): marginal
- Solubility of Progesterone ([5]; pure solvent Tetraglycol): marginal
- progesterone amount in NMP+water+phosphoric acid [6]: 8-10 % w/v
- average serum progesterone levels ([7]; beef cows primed via a used CIDR implant): 1.5 ng/mL
- serum Progesterone levels that provide effective biological activity ([7]; in vivo): 1-3 ng/mL
- follicle size ([7]; three days of progesterone treatment): 13.7 mm
